Measured values: BindingDB's records for doi:10.1021/acs.jmedchem.0c01316 (Agricultural University of Athens, 2020)

Assay: Inhibition of human RANKL-induced osteoclastogenesis in RANKL cultured mouse bone marrow cells assessed as reduction in RANKL/M-CSF-induced TRAP activity preincubated with RANKL for 1 hr followed by cell addition and subsequent media replenishment every 48 hrs for 4 days

Q: With `Cc1cc2occ(CN(C)CCN(C)Cc3cn(-c4cccc(C(F)(F)F)c4)c4ccccc34)c(=O)c2cc1C` as the molecule, how does the IC50 read?
A: 1000 nM

Q: Which IC50 does the source give for `CN(CCN(C)Cc1cn(S(=O)(=O)c2ccccc2)c2ccccc12)Cc1coc2ccccc2c1=O` here?
A: 2500 nM

Q: Which IC50 does the source give for `CN(CCN(C)C(=O)c1cn(-c2cccc([N+](=O)[O-])c2)c2ccccc12)C(=O)c1coc2ccccc2c1=O` here?
A: 1880 nM

Q: With `CN(CCN(C)C(=O)c1cn(S(=O)(=O)c2ccccc2)c2ccccc12)C(=O)c1coc2ccccc2c1=O` as the molecule, how does the IC50 read?
A: 2860 nM

Q: Which IC50 does the source give for `CN(CCN(C)C(=O)c1cn(S(=O)(=O)c2cccc([N+](=O)[O-])c2)c2ccccc12)C(=O)c1coc2ccccc2c1=O` here?
A: 5070 nM

Q: Which IC50 does the source give for `CN(CCN(C)S(=O)(=O)c1ccccc1)C(=O)c1cn(S(=O)(=O)c2cccc([N+](=O)[O-])c2)c2ccccc12` here?
A: 2700 nM

Q: Which IC50 does the source give for `CN(CCN(C)S(=O)(=O)c1ccc(C#N)cc1)C(=O)c1cn(S(=O)(=O)c2cccc([N+](=O)[O-])c2)c2ccccc12` here?
A: 2000 nM

Q: With `CN(CCN(C)S(=O)(=O)c1cccc([N+](=O)[O-])c1)C(=O)c1cn(S(=O)(=O)c2cccc([N+](=O)[O-])c2)c2ccccc12` as the molecule, how does the IC50 read?
A: 1900 nM

Q: For `O=C(c1cn(S(=O)(=O)c2cccc([N+](=O)[O-])c2)c2ccccc12)N1CCN(S(=O)(=O)c2ccccc2)CC1`, which IC50 is on record?
A: 1400 nM

Q: Which IC50 does the source give for `N#Cc1ccc(S(=O)(=O)N2CCN(C(=O)c3cn(S(=O)(=O)c4cccc([N+](=O)[O-])c4)c4ccccc34)CC2)cc1` here?
A: 5100 nM

Q: With `O=C(c1cn(S(=O)(=O)c2cccc([N+](=O)[O-])c2)c2ccccc12)N1CCN(S(=O)(=O)c2cccc([N+](=O)[O-])c2)CC1` as the molecule, how does the IC50 read?
A: 6400 nM
